Results on 30 substances are retold here after patent publication US12037583B2, “Compositions and methods for immunooncology” (Novartis AG, priority 2015, dated 2024).

One data set relates to PDCD1. The experiment in a line: NGS editing of PDCD1 by dgRNA in HEK cells stably expressing Cas9.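 Note: dgRNA lipofected into Cas9-expressing HEK cells, lysed after 24 h, target amplicon sequenced, editing = reads carrying insertions or deletions as percent of all reads including wild type.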 The settings on record: at least 3 experiments. The data set is classed as cell-based, human.
From the text: Transfection of Cas9GFP-expressing HEK293 cells (HEK-293_Cas9GFP) was used for primary screening of target specific crRNAs. […] Selected crRNAs were chemically synthesized and delivered in a 96 well format. HEK-293-Cas9GFP cells were transfected with target crRNAs comprising a flagpole region of SEQ ID NO: 6607 in a 1:1 ratio with stock trRNA of SEQ ID NO: 6660. The transfection was mediated using lipofection technology according to manufacturer's protocol (DharmaFECT Duo, GE LifeSciences; or RNAiMax, LifeTechnologies). Transfected cells were lysed 24 h following lipofection and editing (e.g., cleavage) was detected within lysates with the T7E1 assay and/or next generation sequencing (NGS; below).
PCR primers were first designed around the target site, and the genomic area of interest PCR amplified. Additional PCR was performed according to manufacturer's protocols (Illumina) to add the necessary chemistry for sequencing. The amplicons were then sequenced on an Illumina MiSeq instrument. The reads were then aligned to the human reference genome (e.g., hg38) after eliminating those having low quality scores. From the resulting files containing the reads mapped to the reference genome (BAM files), reads which overlap the target region of interest were selected and the number of wild type reads versus the number of reads which contain an insertion or deletion was calculated. The editing percentage was then defined as the total number of reads with insertions or deletions over the total number of reads, including wild type. To determine the pattern of insertions and/or deletions that resulted from the edit, the aligned reads with indels were selected and the number of a reads with a given indel were summed.
Editing of CRISPR systems containing dgRNA molecules comprising targeting domains to sequences of PDCD1 were tested for editing in HEK (gRNA delivered to cells stably expressing Cas9) and CD3+ T cells (gRNA and Cas9 delivered as RNP) according to the methods described herein.
All mean editing % are as measured by NGS and are based on at least 3 experiments.
Take “CR000846: dgRNA targeting domain to PDCD1 (guide GCCCUGCUCGUGGUGACCGA; targeting domain within dual guide RNA, chemistry not given here, further chemistry not given here; listed as Homo sapiens)”: the “HEK (NGS) % Editing Mean” value was 46%.

As for “CR000883: dgRNA targeting domain to PDCD1 (guide ACAGCGGCACCUACCUCUGU; targeting domain within dual guide RNA, chemistry not given here, further chemistry not given here; listed as Homo sapiens)”, the “HEK (NGS) % Editing Mean” value came to 9%.

As to “CR000847: dgRNA targeting domain to PDCD1 (guide CCCUUCGGUCACCACGAGCA; targeting domain within dual guide RNA, chemistry not given here, further chemistry not given here; listed as Homo sapiens)”, the “HEK (NGS) % Editing Mean” value was 77%.

Regarding “CR000867: dgRNA targeting domain to PDCD1 (guide ACGGAAGCGGCAGUCCUGGC; targeting domain within dual guide RNA, chemistry not given here, further chemistry not given here; listed as Homo sapiens)”, the “HEK (NGS) % Editing Mean” value came to 24%.

Take “CR000892: dgRNA targeting domain to PDCD1 (guide GCAGAUCAAAGAGAGCCUGC; targeting domain within dual guide RNA, chemistry not given here, further chemistry not given here; listed as Homo sapiens)”: the “HEK (NGS) % Editing Mean” value was 45%.

On to “CR000868: gRNA targeting domain to PDCD1, UGACACGGAAGCGGCAGUCC (SEQ ID NO: 5764) (targeting domain within guide RNA, chemistry not given here, further chemistry not given here; listed as Homo sapiens)”, for which the “HEK (NGS) % Editing Mean” value was determined as 47%.

In the case of “CR000896: dgRNA targeting domain to PDCD1 (guide CGGCCAGUUCCAAACCCUGG; targeting domain within dual guide RNA, chemistry not given here, further chemistry not given here; listed as Homo sapiens)”, the “HEK (NGS) % Editing Mean” value is reported as 42%.

As for “CR000877: dgRNA targeting domain to PDCD1 (guide GGGCCCUGACCACGCUCAUG; targeting domain within dual guide RNA, chemistry not given here, further chemistry not given here; listed as Homo sapiens)”, the “HEK (NGS) % Editing Mean” value is 5%.

Take “CR000836: dgRNA targeting domain to PDCD1 (guide CACCGCCCAGACGACUGGCC; targeting domain within dual guide RNA, chemistry not given here, further chemistry not given here; listed as Homo sapiens)”: the “HEK (NGS) % Editing Mean” value was determined as 5%.

“CR000855: dgRNA targeting domain to PDCD1 (guide UCUGGUUGCUGGGGCUCAUG; targeting domain within dual guide RNA, chemistry not given here, further chemistry not given here; listed as Homo sapiens)”: the “HEK (NGS) % Editing Mean” value is recorded as 61%.

As for “CR000903: dgRNA targeting domain to PDCD1 (guide CGCCCACGACACCAACCACC; targeting domain within dual guide RNA, chemistry not given here, further chemistry not given here; listed as Homo sapiens)”, the “HEK (NGS) % Editing Mean” value is recorded as 54%.

As to “CR000854: dgRNA targeting domain to PDCD1 (guide CGGAGAGCUUCGUGCUAAAC; targeting domain within dual guide RNA, chemistry not given here, further chemistry not given here; listed as Homo sapiens)”, the “HEK (NGS) % Editing Mean” value is 24%.

Turning to “CR000857: dgRNA targeting domain to PDCD1 (guide AGCUUGUCCGUCUGGUUGCU; targeting domain within dual guide RNA, chemistry not given here, further chemistry not given here; listed as Homo sapiens)”, the “HEK (NGS) % Editing Mean” value is recorded as 1%.

Take “CR000898: dgRNA targeting domain to PDCD1 (guide CAGUUCCAAACCCUGGUGGU; targeting domain within dual guide RNA, chemistry not given here, further chemistry not given here; listed as Homo sapiens)”: the “HEK (NGS) % Editing Mean” value amounted to 11%.

“CR000891: dgRNA targeting domain to PDCD1 (guide CGCAGAUCAAAGAGAGCCUG; targeting domain within dual guide RNA, chemistry not given here, further chemistry not given here; listed as Homo sapiens)”: the “HEK (NGS) % Editing Mean” value was 29%.

As for “CR000897: dgRNA targeting domain to PDCD1 (guide CAACCACCAGGGUUUGGAAC; targeting domain within dual guide RNA, chemistry not given here, further chemistry not given here; listed as Homo sapiens)”, the “HEK (NGS) % Editing Mean” value came to 26%.

For the substance “CR000916: dgRNA targeting domain to PDCD1 (guide CAGGGGCUGGCCGGUGCGCC; targeting domain within dual guide RNA, chemistry not given here, further chemistry not given here; listed as Homo sapiens)”, the “HEK (NGS) % Editing Mean” value was determined as 5%.

With “CR000875: dgRNA targeting domain to PDCD1 (guide ACUUCCACAUGAGCGUGGUC; targeting domain within dual guide RNA, chemistry not given here, further chemistry not given here; listed as Homo sapiens)”, the “HEK (NGS) % Editing Mean” value came out at 6%.

In the case of “CR000885: dgRNA targeting domain to PDCD1 (guide GAUCUGCGCCUUGGGGGCCA; targeting domain within dual guide RNA, chemistry not given here, further chemistry not given here; listed as Homo sapiens)”, the “HEK (NGS) % Editing Mean” value is given as 10%.

As for “CR000863: dgRNA targeting domain to PDCD1 (guide CCGGGCUGGCUGCGGUCCUC; targeting domain within dual guide RNA, chemistry not given here, further chemistry not given here; listed as Homo sapiens)”, the “HEK (NGS) % Editing Mean” value is 40%.

Take “CR000831: dgRNA targeting domain to PDCD1 (guide GGAGAAGGCGGCACUCUGGU; targeting domain within dual guide RNA, chemistry not given here, further chemistry not given here; listed as Homo sapiens)”: the “HEK (NGS) % Editing Mean” value stood at 66%.

“CR000880: dgRNA targeting domain to PDCD1 (guide GGUGCCGCUGUCAUUGCGCC; targeting domain within dual guide RNA, chemistry not given here, further chemistry not given here; listed as Homo sapiens)”: the “HEK (NGS) % Editing Mean” value turned out to be 10%.

On to “CR000881: gRNA targeting domain to PDCD1, AGGUGCCGCUGUCAUUGCGC (SEQ ID NO: 5777) (targeting domain within guide RNA, chemistry not given here, further chemistry not given here; listed as Homo sapiens)”, for which the “HEK (NGS) % Editing Mean” value worked out at 21%.

With “CR000884: dgRNA targeting domain to PDCD1 (guide CCAGGGAGAUGGCCCCACAG; targeting domain within dual guide RNA, chemistry not given here, further chemistry not given here; listed as Homo sapiens)”, the “HEK (NGS) % Editing Mean” value was 59%.

For the substance “CR000851: dgRNA targeting domain to PDCD1 (guide GAAGGUGGCGUUGUCCCCUU; targeting domain within dual guide RNA, chemistry not given here, further chemistry not given here; listed as Homo sapiens)”, the “HEK (NGS) % Editing Mean” value amounted to 4%.

With “CR000888: dgRNA targeting domain to PDCD1 (guide UCUCUUUGAUCUGCGCCUUG; targeting domain within dual guide RNA, chemistry not given here, further chemistry not given here; listed as Homo sapiens)”, the “HEK (NGS) % Editing Mean” value is given as 4%.

A further data set relates to TRAC locus. The experiment in a line: Genomic editing of the TRAC locus in primary human CD3+ T cells by RNP electroporation (NGS: % indels, % frameshift edits, indel pattern).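 Note: total edit is the insertion or deletion frequency at TRAC, and the frameshift value is the share of those indels that shift the coding frame.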 The conditions noted are these: frameshift edits in primary human CD3+ T cells, dgRNA/Cas9 RNP by electroporation, target TRAC. Format: cell-based.
From the text: (§1) FIG. 12: Mean (n≥3) editing of CRISPR systems with dgRNAs as indicated to TRAC in HEK cells (stably expressing Cas9) or primary human CD3+ T cells (delivery of dgRNA:Cas9 RNP by electroporation).
FIG. 33C: Genomic editing of the TRAC locus resulting from human primary T cell electroporation with RNP containing the indicated gRNA targeting the TRAC locus is shown. The frequency of insertions or deletions is indicated (% indels) and the percentage of these edits that result in frameshifting of the coding sequence is shown (% frameshift edits).
Data for each experiment are the average from triplicate PCR products.
On to “CCUGUGAGCAUGGCAUGCCC (chemistry not given here; listed as Homo sapiens) [CR000927]”, for which the “mean FS edit (%)” value came to 22.6%.

On to “CCAGGGCAUGCCAUGCUCAC (chemistry not given here; listed as Homo sapiens) [CR000928]”, for which the “mean FS edit (%)” value was 14.6%.

Staying with this data set, now noted: primary human CD3+ T cells, dgRNA/Cas9 RNP by electroporation, target TRAC, mean of at least 3 experiments.
“CCUGUGAGCAUGGCAUGCCC (chemistry not given here; listed as Homo sapiens) [CR000927]”: the “mean total % edit” value turned out to be 23.8%.

Take “CCAGGGCAUGCCAUGCUCAC (chemistry not given here; listed as Homo sapiens) [CR000928]”: the “mean total % edit” value came out at 18.1%.

The subject of another data set is TRAC. In words: Editing of TRAC by dgRNAs in HEK cells stably expressing Cas9 (NGS). Format: cell-based, human. The conditions noted are these: dgRNA delivered to HEK cells stably expressing Cas9, target TRAC, mean of at least 3 experiments.
From the text: as §1
Consider “CCUGUGAGCAUGGCAUGCCC (chemistry not given here; listed as Homo sapiens) [CR000927]”, for which the mean % edit is 68.7%.

Substance “CCAGGGCAUGCCAUGCUCAC (chemistry not given here; listed as Homo sapiens) [CR000928]” yielded a mean % edit of 54.2%.

As to “GCCUCCUGCACAGACAUCUC (targeting domain within guide RNA, chemistry not given here, further chemistry not given here; listed as Homo sapiens) [CR000936]”, the mean % edit is recorded as 59.7%.

Substance “ACCAGAGAUGUCUGUGCAGG (targeting domain within guide RNA, chemistry not given here, further chemistry not given here; listed as Homo sapiens) [CR000935]” showed a mean % edit of 54.2%.
